Source: paper PMC6593967, “The development and prevalidation of an in vitro mutagenicity assay based on MutaMouse primary hepatocytes, Part II: Assay performance for the identification of mutagenic chemicals” (Environmental and Molecular Mutagenesis, 2019)
“And” between values parts separate entries of the source, which are not always exact repeats. Equal entries are not always repeated. “Also recorded” adds a separate entry of the source. Where two headings read alike, the source gives them in different places.

What was measured:
[1] = system: MutaMouse FE1 lung epithelial cells; settings: cited from earlier work
[2] = system: pUR288 lacZ Plasmid Mouse PHs; settings: cited from earlier work; for Response in pUR288 lacZ Plasmid Mouse PHs gene mutation assay: ref citations provided
MutaMouse = settings: cited from earlier work; for Relative potency in the MutaMouse gene mutation assay in vivo: ref Gocke et al., 2009, Luijten et al., 2016, Hanna, 2018, Long et al.
[3] = system: MutaMouse primary hepatocytes (PHs); experiment: MutaMouse PH in vitro gene mutation assay (lacZ mutant frequency, P-Gal positive selection); settings: for Significant MF increase over concurrent vehicle control at any concentration: Bonferroni-corrected contrasts; for Overall treatment effect on MF (Chi-squared test): P < 0.05 significant
[4] = system: MutaMouse primary hepatocytes (PHs); experiment: Cytotoxicity by relative increase in nuclear counts (RINC), flow cytometry; type: cell-based, mouse
Method: Cytotoxicity was measured using the relative increase in nuclear counts (RINC) metric. […] To normalize nuclei counts, 150 μL of a suspension of 6 μm fluorescently labeled polystyrene microspheres was added to each sample of lysate. […] Each microsphere‐lysate sample was diluted 1:10 prior to flow cytometric analysis. Data were acquired using a BD Biosciences FACScalibur flow cytometer (BD Biosciences, Mississauga, Ontario) equipped with a 488 nm laser. Instrumentation settings and data acquisition were facilitated using CellQuest Pro software (BD Biosciences). Data analysis was performed using Flowing Software version 2.5.1 (Turku Centre for Biotechnology, Turku, Finland). SYTOX® green and bead fluorescence emission were captured in the FL1 channel (530/30 band‐pass filter). Events were scored as nuclei following the application of key criteria (i.e., within a side scatter (SSC) vs forward scatter (FSC) region, within a region that excludes doublets, and within an FSC vs. FL1 region).

[5] = system: hematopoietic tissues (e.g., the bone marrow and blood); settings: cited from earlier work
[6] = ref NTP, 1982, 1986, Kirkland et al., 2008, Fowler et al., 2012a, 2016; cited from earlier work
[7] = system: p53‐deficient hamster cells; settings: ref NTP, 1982, 1986, Kirkland et al., 2008, Fowler et al., 2012a, 2016; cited from earlier work
[8] = system: p53‐functional human cells; settings: ref NTP, 1982, 1986, Kirkland et al., 2008, Fowler et al., 2012a, 2016; cited from earlier work
liver = system: liver; parameters: method as in Rompelberg et al., 1996a; Rompelberg et al., 1996b; settings: ref Rompelberg et al., 1996a, 1996b; cited from earlier work
tk locus = settings: S9; PhIP: human TK6 assay; 3-NBA: tk locus in human lymphoblast lines h1A1v2 and MCL-5; ref citations provided; cited from earlier work
[9] = 6 h exposure, 72 h sampling, no exogenous S9
[10] = BMR 100% (twofold MF increase), PROAST covariate analysis
[11] = lower limit of 90% confidence interval of BMD100
[12] = maximum response, concentration not given
[13] = upper limit of 90% confidence interval of BMD100
[14] = at or above top concentrations tested
[15] = ref White et al., 2003, Hanna, 2018

Row | Compound | Response in MutaMouse FE1 gene mutation assay ([1]; S9, ref citations provided) | Response in MutaMouse PH gene mutation assay [3, 9] | BMD100, Exponential model [3, 10] [µg/mL] | BMD100, Hill model [3, 10] [µg/mL] | BMDL, Exponential model [3, 11] [µg/mL] | BMDL, Hill model [3, 11] [µg/mL] | MF fold increase over control in MutaMouse PHs [3, 12] [fold] | BMDU, Exponential model [3, 13] [µg/mL] | BMDU, Hill model [3, 13] [µg/mL] | Relative mutagenic potency by BMD100 covariate analysis ([3]; ranking of positive chemicals) | further results
1 | CCN(N=O)C(N)=O [ENU, N‐ethyl‐N‐nitrosourea] | Positive (−S9) | Positive | 76 | 76 | 36.6 | 36.6 | 4.2 | 178 | 170 | – | MF fold increase in MutaMouse FE1 cells ([1]; ref White et al., 2003): ~ 6 fold; MF fold increase in pUR288 lacZ plasmid mouse PHs ([2]; ref Luijten et al., 2016): ~ 4 fold; Response in pUR288 lacZ Plasmid Mouse PHs gene mutation assay [2]: Positive; Relative potency in the MutaMouse gene mutation assay in vivo (MutaMouse; liver and bone marrow): more potent than BaP; Relative potency in the MutaMouse gene mutation assay in vivo (MutaMouse; small intestine, versus BaP): of equivalent potency; MF fold-increase over control ([3]; 1,000 μg/mL, 6 h exposure, 72 h sampling): 4.2 fold
2 | O=C1c2ccccc2-c2ccc([N+](=O)[O-])c3cccc1c23 [3‐NBA, 3‐nitrobenzanthrone] | Positive (±S9) | positive results; also recorded: positive responses | 0.15 | 0.15 | 0.0689 | 0.0689 | 3.6 | 0.373 | 0.363 | most potent | MF fold increase above solvent control in MutaMouse FE1 cells ([1]; ref Arlt et al., 2008): ~ five; Cytotoxicity (RINC) in words [4, 14]: sharp increase in cytotoxicity; MF fold-increase over control ([3]; 0.5 μg/mL, 6 h exposure, 72 h sampling): 8.2 fold
3 | CC1(C)S[C@@H]2[C@H](NC(=O)[C@H](N)c3ccccc3)C(=O)N2[C@H]1C(=O)O [Ampicillin trihydrate] | – | Negative | – | – | – | – | – | – | – | – | –
4 | CC(C)(C)c1cc(O)ccc1O [TBHQ, tertiary butylhydroquinone] | – | Negative | – | – | – | – | – | – | – | – | Cytotoxicity (RINC) in words [4]: relatively high RINC obtained at the top concentration; Genotoxicity result in vivo ([5]; in vivo): negative results in vivo; Result in in vitro chromosome aberration test [6]: positive; Result for micronucleus [7]: positive; Significant MF increase over concurrent vehicle control at any concentration [3]: Neither TBHQ nor eugenol yielded a significant increase in MF; Result in in vitro micronucleus assay [8]: negative results
5 | COc1ccc2nc3cc(Cl)ccc3c(NCCCNCCCl)c2c1.Cl.Cl [ICR 191, 6‐chloro‐9‐[3‐(2‐chloroethylamino)propylamino]‐2‐methoxyacridine dihydrochloride] | – | negative result | – | – | – | – | – | – | – | – | Significant MF increase over concurrent vehicle control at any concentration [3]: did not yield a significant increase in MF; Overall treatment effect on MF (Chi-squared test) [3]: nor was a significant treatment effect detected
6 | C=CCc1ccc(O)c(OC)c1 [Eugenol] | – | equivocal | – | – | – | – | – | – | – | – | Result in in vivo MutaMouse assay (MutaMouse; liver, ref Rompelberg et al., 1996a, Rompelberg et al., 1996b): negative results; Cytotoxicity (RINC) in words [4, 14]: could not be tested at higher concentrations due to cytotoxicity; also recorded: too cytotoxic to test at higher concentrations; Genotoxicity result in vivo ([5]; data limited, mainly hematopoietic tissues, ref Kirkland et al., 2016): negative results in vivo; Result in in vitro chromosome aberration test [6]: positive; Result for micronucleus [7]: positive; Result in UDS assay (liver): negative results; Significant MF increase over concurrent vehicle control at any concentration [3]: absence of a significant response at any concentration tested; also recorded: Neither TBHQ nor eugenol yielded a significant increase in MF; Overall treatment effect on MF (Chi-squared test) [3]: significant result for the overall treatment effect; Overall treatment effect on MF (Chi-squared test) ([3]; listed as eugenol): significant treatment effect; Result in in vitro micronucleus assay [8]: negative results
7 | CC(=O)Nc1ccc2c(c1)Cc1ccccc1-2 [2‐AAF, 2‐acetylaminofluorene] | Positive (±S9) | positive responses | 1.9 | 1.9 | 0.964 | 0.964 | 2.6 | 3.96 | 3.96 | less potent than 3‐NBA and BaP | MF fold increase in MutaMouse FE1 cells [1, 15]: ~ 1.7 fold; MF fold-increase over control ([3]; 5 μg/mL, 6 h exposure, 72 h sampling): 2.6 fold
8 | aflatoxin B1 [AFB1] | – | – | – | – | – | – | – | – | – | – | MF fold increase in MutaMouse FE1 cells [1]: ~ three; Response in MutaMouse FE1 gene mutation assay [1]: Positive (±S9); RINC [4]: 0.6 and 0.3; BMD100, Exponential model [3]: 0.47 µg/mL; BMD100, Hill model [3]: 0.47 µg/mL; BMDL, Exponential model [3]: 0.193 µg/mL; BMDL, Hill model [3]: 0.193 µg/mL; BMDU, Exponential model [3]: 1.47 µg/mL; BMDU, Hill model [3]: 1.47 µg/mL; MF fold increase over control in MutaMouse PHs [3]: 3.6 fold; MF fold-increase over control [3]: 3.6 fold and 2.5 fold; Relative mutagenic potency by BMD100 covariate analysis [3]: most potent; Response in MutaMouse PH gene mutation assay [3]: positive responses
9 | OC[C@@H](O)[C@@H](O)[C@H](O)[C@H](O)CO [D‐Mannitol] | Negative (−S9) | Negative | – | – | – | – | – | – | – | – | Response in pUR288 lacZ Plasmid Mouse PHs gene mutation assay [2]: Negative; Response in MLA (tk locus): Negative (±S9)
10 | CN(C)N=O [DMN, dimethylnitrosamine] | – | positive responses | 7.6 | 7.6 | 3.18 | 3.18 | 14.4 | 21.5 | 16.8 | less potent than 3‐NBA and BaP | MF fold-increase over control ([3]; 200 μg/mL, 6 h exposure, 72 h sampling): 14.4 fold
11 | Cn1c(N)nc2ncc(-c3ccccc3)cc21 [PhIP, 2‐amino‐1‐methyl‐6‐phenylimidazo[4,5‐b]pyridine] | Positive (+S9) | positive responses | 2.6 | 2.6 | 1.05 | 1.05 | 3.7 | 7.8 | 7.05 | less potent than 3‐NBA and BaP | MF fold increase in MutaMouse FE1 cells [1, 15]: ~ 5.5 fold; MF fold-increase over control ([3]; 10 μg/mL, 6 h exposure, 72 h sampling): 3.7 fold
